Measured values: patent US20160166604A1, “Thiol-Sensitive Positive Inotropes” (priority 2005, published 2016)
“And” between values parts separate entries of the source, which are not always exact repeats. Equal values may be shown once. “Also recorded” adds a separate entry of the source.

Assays:
[1] = system: isolated mouse ventricular myocytes; experiment: Sarcomere shortening in field-stimulated isolated mouse ventricular myocytes; assay type: cell-based
Description: Wild type 2-4 month old mice were anesthetized with intraperitoneal pentobarbital sodium (100 mg/kg/ip). Hearts were perfused as previously described. Mongillo, M. et al., Circ. Res., 98, 226-234 (2006). To assess for sarcomere shortening, cells were imaged using field stimulation (Warner instruments) in an inverted fluorescence microscope (Diaphot 200; Nikon, Inc). Sarcomere length was measured by real-time Fourier transform (IonOptix MyoCam, CCCCD100M) and cell twitch amplitude is expressed as a percentage of resting cell length. Twitch kinetics was quantified by measuring the time to peak shortening and the time from peak shortening to 50% relaxation. For whole calcium transient measurements, myocytes were loaded with the Ca^2+ indicator fluo-4/AM (Molecular Probes, 20 μM for 30 min) and Ca^2+ transients were measured under field-stimulation at 0.5 Hz in perfusion solution by confocal laser scanning microscope (LSM510, Carl Zeiss). Digital image analysis used customer-designed programs coded in Interactive Data Language (IDL).
Nitroxyl (HNO) confers positive inotropy in vivo. Here, it was determined whether HNO action stems from a direct influence on sarcoplasmic reticulum (SR) Ca^2+ cycling, involving enhanced Ca^2+ release from ryanodine receptors (RyR2). Myocytes were isolated from ST mice, suspended in Tyrode's solution (1 mM Ca^2+) and field stimulated (0.5 Hz, 25° C.). Sarcomere shortening (SS) was assessed by real-time image analysis, Ca^2+ transients from Indo-1 fluorescence. RyR2 activity was determined by optical imaging of Ca^2+ release from single Ca^2+ release units.

RyR2 = target: T1, RyR2 (Mus musculus, UniProt E9Q401); experiment: Spontaneous Ca2+ sparks and spark frequency in intact murine myocytes; assay type: cell-based
T1 construct: endogenous in cells; host or cells: freshly isolated adult mouse cardiac myocytes
Description: Freshly isolated mouse cardiac myocytes were loaded with the Ca^2+ indicator fluo-4/AM (Molecular Probes, 20 μM for 30 min). Confocal images were acquired using a confocal laser-scanning microscope (LSM510, Carl Zeiss) with a Zeiss Plan-Neofluor 40× oil immersion objective (NA≈1.3). Fluo-4/AM was excited by an argon laser (488 nm), and fluorescence was measured at >505 nm. Images were taken in the line-scan mode, with the scan line parallel to the long axis of the myocytes. Each image consisted of 512 line scans obtained at 1.92 ms intervals, each comprising 512 pixels at 0.10 μm separation. Digital image analysis used customer-designed programs coded in Interactive Data language (IDL) and a modified spark detection algorithm. Cheng, H. et al., Biophys. J., 76, 606-617 (1999).
Nitroxyl (HNO) confers positive inotropy in vivo. Here, it was determined whether HNO action stems from a direct influence on sarcoplasmic reticulum (SR) Ca^2+ cycling, involving enhanced Ca^2+ release from ryanodine receptors (RyR2). Myocytes were isolated from ST mice, suspended in Tyrode's solution (1 mM Ca^2+) and field stimulated (0.5 Hz, 25° C.). Sarcomere shortening (SS) was assessed by real-time image analysis, Ca^2+ transients from Indo-1 fluorescence. RyR2 activity was determined by optical imaging of Ca^2+ release from single Ca^2+ release units. The HNO donor Angeli's Salt (AS) induced dose-dependent inotropy (SS: 73±31% at 0.5 mM; 131±31% at 1 mM; all n=15, p<0.05 vs. base; <0.1 mM: no effect). In contrast, the NO donor DEA/NO reduced SS by 55-65% at 5-50 μM (both p<0.05 vs. base), with no effect at higher doses. […] However, co-infusion with the thiol-donating compound N-acetyl-L-cysteine (NAC, 3 mM) abolished AS inotropy.

SERCA2a = target: T2, SERCA2a (Canis lupus familiaris, UniProt O46674); experiment: Ca-ATPase partial reactions and Vmax in cardiac SR vesicles from normal and failing dog hearts; assay type: biochemical; details: for stimulation of maximal Ca-ATPase activity compared to control / spontaneous E2P hydrolysis rate: 0.25 mM AS; for stimulation of maximal Ca-ATPase activity compared to control: 2.5 mM oxalate
T2 construct: sealed cardiac sarcoplasmic reticulum (CSR) membrane vesicles isolated from normal (N) and failing (F); from tissue; host or cells: dog heart, normal and tachy-pacing-induced failing (sealed cardiac SR vesicles)
Description: The effect of AS on Ca-ATPase partial reactions and Vmax was measured in sealed cardiac sarcoplasmic reticulum (CSR) membrane vesicles isolated from normal (N) and failing (F) (tachy-pacing-induced) dog hearts. […] In the presence of 2.5 mM oxalate (Ca^2+-loading conditions), 0.25 mM AS stimulated maximal Ca-ATPase activity in N and F CSR (4% vs. 9% compared to control). […] This relieves back inhibition of SERCA2a by the Ca^2+ transport gradient, increasing Vmax.

T1 sequence (E9Q401 whole entry): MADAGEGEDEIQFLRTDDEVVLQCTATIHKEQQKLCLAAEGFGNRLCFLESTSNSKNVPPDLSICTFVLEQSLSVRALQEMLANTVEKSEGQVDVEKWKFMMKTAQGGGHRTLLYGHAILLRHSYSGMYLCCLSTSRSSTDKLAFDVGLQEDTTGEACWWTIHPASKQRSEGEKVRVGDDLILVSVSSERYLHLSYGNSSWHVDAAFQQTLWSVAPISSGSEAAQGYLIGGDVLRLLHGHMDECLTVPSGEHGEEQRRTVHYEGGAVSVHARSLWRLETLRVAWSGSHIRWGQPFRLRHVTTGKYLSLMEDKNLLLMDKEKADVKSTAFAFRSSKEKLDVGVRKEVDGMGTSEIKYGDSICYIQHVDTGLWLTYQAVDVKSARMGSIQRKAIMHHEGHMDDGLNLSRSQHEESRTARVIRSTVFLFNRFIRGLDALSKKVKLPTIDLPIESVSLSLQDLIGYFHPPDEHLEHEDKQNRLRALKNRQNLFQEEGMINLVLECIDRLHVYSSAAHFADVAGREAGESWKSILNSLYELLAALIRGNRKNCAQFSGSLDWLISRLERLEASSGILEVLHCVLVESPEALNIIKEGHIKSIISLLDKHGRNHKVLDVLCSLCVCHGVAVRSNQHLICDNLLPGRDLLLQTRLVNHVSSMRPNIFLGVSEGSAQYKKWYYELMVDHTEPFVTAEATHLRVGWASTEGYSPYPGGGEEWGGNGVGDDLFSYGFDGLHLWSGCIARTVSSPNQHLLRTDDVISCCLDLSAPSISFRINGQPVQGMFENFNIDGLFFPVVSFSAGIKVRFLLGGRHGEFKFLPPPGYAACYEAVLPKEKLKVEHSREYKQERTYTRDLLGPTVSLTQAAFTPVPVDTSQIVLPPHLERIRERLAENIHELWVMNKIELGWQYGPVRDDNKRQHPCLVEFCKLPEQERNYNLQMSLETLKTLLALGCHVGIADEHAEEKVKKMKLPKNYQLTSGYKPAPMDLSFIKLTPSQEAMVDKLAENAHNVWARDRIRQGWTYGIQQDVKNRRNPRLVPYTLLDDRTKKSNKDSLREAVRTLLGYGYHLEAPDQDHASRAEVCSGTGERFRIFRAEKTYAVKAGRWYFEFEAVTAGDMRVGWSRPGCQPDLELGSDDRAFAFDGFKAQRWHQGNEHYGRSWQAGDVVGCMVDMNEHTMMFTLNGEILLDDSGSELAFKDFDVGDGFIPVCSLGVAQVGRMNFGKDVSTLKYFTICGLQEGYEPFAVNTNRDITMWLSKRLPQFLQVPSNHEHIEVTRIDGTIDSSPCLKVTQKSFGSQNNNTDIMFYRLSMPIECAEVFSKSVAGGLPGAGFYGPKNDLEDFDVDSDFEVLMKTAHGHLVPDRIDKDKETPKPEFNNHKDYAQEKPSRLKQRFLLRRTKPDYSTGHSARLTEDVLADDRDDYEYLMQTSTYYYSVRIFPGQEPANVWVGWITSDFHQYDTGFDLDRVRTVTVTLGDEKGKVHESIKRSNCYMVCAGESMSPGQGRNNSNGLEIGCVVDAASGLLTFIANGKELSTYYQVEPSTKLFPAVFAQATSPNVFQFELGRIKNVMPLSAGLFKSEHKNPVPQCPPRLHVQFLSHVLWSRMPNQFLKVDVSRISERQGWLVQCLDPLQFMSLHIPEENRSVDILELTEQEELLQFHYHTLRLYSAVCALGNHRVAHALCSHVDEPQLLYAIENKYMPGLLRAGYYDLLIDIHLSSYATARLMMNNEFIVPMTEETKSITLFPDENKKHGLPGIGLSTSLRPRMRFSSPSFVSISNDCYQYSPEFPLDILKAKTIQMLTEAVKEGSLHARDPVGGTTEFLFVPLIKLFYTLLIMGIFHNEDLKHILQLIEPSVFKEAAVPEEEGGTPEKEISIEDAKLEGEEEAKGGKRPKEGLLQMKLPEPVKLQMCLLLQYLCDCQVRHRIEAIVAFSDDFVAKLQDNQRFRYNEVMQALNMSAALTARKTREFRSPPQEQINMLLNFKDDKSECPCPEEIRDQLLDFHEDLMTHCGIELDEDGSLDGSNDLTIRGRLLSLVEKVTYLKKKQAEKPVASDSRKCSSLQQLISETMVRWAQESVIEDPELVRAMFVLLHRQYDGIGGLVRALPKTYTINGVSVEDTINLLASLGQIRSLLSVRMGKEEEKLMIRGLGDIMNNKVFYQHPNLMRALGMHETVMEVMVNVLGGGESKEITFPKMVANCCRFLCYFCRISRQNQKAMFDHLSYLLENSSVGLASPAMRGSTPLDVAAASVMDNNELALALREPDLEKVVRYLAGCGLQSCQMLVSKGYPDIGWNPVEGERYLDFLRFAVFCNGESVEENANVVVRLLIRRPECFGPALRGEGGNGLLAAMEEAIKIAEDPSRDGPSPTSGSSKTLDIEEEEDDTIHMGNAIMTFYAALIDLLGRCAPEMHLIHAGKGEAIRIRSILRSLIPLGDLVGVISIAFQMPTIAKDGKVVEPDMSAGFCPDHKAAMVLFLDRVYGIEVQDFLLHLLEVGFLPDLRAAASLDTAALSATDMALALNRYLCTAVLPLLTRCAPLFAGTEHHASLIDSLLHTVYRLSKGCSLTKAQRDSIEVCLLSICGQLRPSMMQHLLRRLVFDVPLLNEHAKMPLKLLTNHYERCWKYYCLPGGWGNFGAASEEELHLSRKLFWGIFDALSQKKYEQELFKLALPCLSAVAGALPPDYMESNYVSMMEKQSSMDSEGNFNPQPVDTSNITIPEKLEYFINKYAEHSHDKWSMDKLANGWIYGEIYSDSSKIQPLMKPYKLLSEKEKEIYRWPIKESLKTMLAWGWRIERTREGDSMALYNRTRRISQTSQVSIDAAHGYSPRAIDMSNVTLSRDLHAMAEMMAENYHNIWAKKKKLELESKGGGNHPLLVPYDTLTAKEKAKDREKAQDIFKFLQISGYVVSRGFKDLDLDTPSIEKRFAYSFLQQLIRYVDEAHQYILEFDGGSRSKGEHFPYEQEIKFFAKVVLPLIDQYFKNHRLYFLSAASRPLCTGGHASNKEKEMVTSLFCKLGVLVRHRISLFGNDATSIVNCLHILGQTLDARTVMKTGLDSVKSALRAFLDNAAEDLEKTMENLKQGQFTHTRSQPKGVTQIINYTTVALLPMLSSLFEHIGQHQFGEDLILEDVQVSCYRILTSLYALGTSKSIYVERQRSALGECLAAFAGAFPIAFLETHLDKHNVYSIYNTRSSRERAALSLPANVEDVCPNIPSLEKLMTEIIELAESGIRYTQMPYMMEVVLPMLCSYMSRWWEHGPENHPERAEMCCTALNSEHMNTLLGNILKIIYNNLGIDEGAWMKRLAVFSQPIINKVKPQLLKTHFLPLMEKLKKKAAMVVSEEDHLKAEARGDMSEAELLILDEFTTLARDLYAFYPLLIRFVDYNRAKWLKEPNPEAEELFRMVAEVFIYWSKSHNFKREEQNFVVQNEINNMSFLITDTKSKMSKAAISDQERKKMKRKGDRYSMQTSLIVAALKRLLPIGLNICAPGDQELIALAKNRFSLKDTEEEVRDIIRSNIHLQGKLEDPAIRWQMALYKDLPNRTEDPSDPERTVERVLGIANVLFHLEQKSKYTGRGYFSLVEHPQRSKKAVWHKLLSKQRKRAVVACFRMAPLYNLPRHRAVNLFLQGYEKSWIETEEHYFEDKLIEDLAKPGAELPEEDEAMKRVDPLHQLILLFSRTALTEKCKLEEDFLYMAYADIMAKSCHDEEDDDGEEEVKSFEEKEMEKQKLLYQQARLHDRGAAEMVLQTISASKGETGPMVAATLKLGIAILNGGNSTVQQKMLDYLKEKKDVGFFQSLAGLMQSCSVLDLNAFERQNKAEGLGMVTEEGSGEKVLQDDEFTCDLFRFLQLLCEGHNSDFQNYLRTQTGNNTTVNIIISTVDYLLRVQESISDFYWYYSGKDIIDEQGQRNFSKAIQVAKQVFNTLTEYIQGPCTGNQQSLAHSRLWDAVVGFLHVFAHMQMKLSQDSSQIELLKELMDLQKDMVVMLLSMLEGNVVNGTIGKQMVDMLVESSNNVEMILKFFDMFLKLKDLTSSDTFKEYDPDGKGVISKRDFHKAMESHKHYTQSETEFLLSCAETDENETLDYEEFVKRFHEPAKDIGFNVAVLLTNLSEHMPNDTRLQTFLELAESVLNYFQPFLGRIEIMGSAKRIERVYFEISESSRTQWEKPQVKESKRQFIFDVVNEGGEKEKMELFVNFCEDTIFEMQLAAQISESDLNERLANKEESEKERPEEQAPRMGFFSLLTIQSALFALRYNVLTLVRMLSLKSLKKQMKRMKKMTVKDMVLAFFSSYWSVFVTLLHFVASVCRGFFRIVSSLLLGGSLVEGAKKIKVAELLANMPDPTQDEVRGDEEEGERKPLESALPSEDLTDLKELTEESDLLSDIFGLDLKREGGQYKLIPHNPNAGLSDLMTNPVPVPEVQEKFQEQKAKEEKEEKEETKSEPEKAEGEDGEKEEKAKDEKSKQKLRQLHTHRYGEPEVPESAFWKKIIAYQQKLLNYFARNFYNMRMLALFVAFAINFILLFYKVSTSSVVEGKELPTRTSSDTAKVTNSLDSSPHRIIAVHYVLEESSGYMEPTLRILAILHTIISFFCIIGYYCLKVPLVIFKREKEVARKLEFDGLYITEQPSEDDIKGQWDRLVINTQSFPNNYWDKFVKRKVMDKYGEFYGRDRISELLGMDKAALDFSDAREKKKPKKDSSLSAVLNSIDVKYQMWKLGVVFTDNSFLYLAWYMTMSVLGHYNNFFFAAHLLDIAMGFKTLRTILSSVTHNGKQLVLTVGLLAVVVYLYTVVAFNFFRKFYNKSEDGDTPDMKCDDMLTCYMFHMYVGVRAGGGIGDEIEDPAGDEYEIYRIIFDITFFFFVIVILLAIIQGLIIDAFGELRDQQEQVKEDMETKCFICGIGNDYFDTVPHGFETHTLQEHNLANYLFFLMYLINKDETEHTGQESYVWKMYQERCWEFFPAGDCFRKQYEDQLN

## [Na+].[Na+].[O-][N+]([O-])=NO [AS, Angeli's salt]
[1]; AS
  myocyte relaxation hastened (time to 50% re-lengthening): 10-20%
  time until response plateaued: 10 to 15 min
[1]; AS 0.5 mM
  increase in sarcomere shortening: 73±31% and ~100%
[1]; AS 0.5 mM after GSH ethyl ester 4 mM for 3 hrs
  contractility response (sarcomere shortening) after GSH pre-treatment: 57±19%
[1]; AS 1 mM
  increase in sarcomere shortening: 131±31% and 117±25% and ~100%
[1]; AS 1 mM with ODQ, n=15, p=NS vs. AS 1 mM
  increase in sarcomere shortening with guanylate cyclase inhibition: 157±40%
[1]; AS 10^-6 to 10^-3 M, C57/BL6 myocytes
  AS concentration above which myocyte contractility rose: > 100 µM
[1]; AS <0.1 mM
  effect on sarcomere shortening: no effect
[1]; DEA/NO 0.25 mM, AS 0.5 mM
  effect of co-application on ISO (2.5 nM)-stimulated sarcomere shortening: doubled
[1]; GSH 4 mM for 3 hrs, compared with 1 mM AS alone, n=14
  sarcomere shortening response after GSH pre-incubation: 58±19%
[1]; NAC 3 mM
  AS inotropy on co-infusion of N-acetyl-L-cysteine: abolished
[1]; Rp-8Br-cGMPs 10 μM pre-treatment
  effect of PKG inhibitor Rp-8Br-cGMPs on the agent's inotropy: did not alter; also recorded: no impact
[1]; Rp-CPT-cAMPs 100 μM pre-treatment
  effect of PKA inhibitor Rp-CPT-cAMPs on the agent's enhancement of sarcomere shortening: did not alter
[1]; at ≦500 μM, after a similar time period
  reversibility of response after discontinuation: fully reversible
[1]; thapsigargin 3 μM, n=16
  AS inotropy on co-treatment with thapsigargin: 52±14%
RyR2; 0.5 mM AS
  calcium spark frequency relative to controls: ~7 times
  increase of calcium spark frequency: 7 fold
RyR2; 0.5 mM AS, controls 4±1
  frequency of calcium sparks (CSF): 26±3 sparks/100 μm/s
RyR2; 1 mM AS, n=10-24
  rise in Ca2+ spark frequency: 18 fold
RyR2; AS
  individual spark amplitude, rise time and spatial width: unaltered
RyR2; reduced glutathione preincubation before AS
  AS-induced increase in spark frequency after thiol (GSH) pre-treatment: prevented; also recorded: abrogated
SERCA2a; AS with A23187
  Vmax stimulation in presence of Ca2+ ionophore A23187: abolished
SERCA2a; F CSR
  stimulation of maximal Ca-ATPase activity compared to control: 9%
SERCA2a; N CSR
  stimulation of maximal Ca-ATPase activity compared to control: 4%
SERCA2a; N CSR, AS, without oxalate
  Vmax stimulation: 27%
SERCA2a; failing (F) CSR, without AS 11
  spontaneous E2P hydrolysis rate: 111 s⁻¹
SERCA2a; normal (N) CSR, without AS 12
  spontaneous E2P hydrolysis rate: 76 s⁻¹
